Data: PubChem BioAssay AID2060602 (Molecular Pharmacology Branch, DTP, NCI, 2025)
pIC50: −log10 of the molar value. Where “and” joins values, the source holds several entries; their conditions need not be identical. Equal values may be shown once.

Test system: 648629-189-R-J1-PDC complex spheroids viability
Test: Anticancer human tumor 648629-189-R-J1-PDC patient-derived bladder carcinoma cell line growth inhibition [CLK]
Conditions: for viability, T/C: stronger effect = lower value
Method in brief: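 Patient-derived tumor cells grown as complex spheroids with HUVEC endothelial cells and mesenchymal stem cells, treated with drug combinations. Concentrations descend in half-log steps from near clinical Cmax, or from 10 microM if Cmax unknown.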

[1] = curve of first compound, second compound 0.0316 µM
[2] = curve of first compound, second compound 0.1 µM
[3] = curve of first compound, second compound 0.316 µM
[4] = curve of first compound, second compound 1 µM
[5] = curve of first compound, second compound 3.16 µM
[6] = curve of first compound, second compound 10 µM
[7] = second compound 0.0316 µM, first compound 0.0316 µM
[8] = second compound 0.0316 µM, first compound 0.1 µM
[9] = second compound 0.0316 µM, first compound 0.316 µM
[10] = second compound 0.0316 µM, first compound 1 µM
[11] = second compound 0.1 µM, first compound 0.0316 µM
[12] = second compound 0.1 µM, first compound 0.1 µM
[13] = second compound 0.1 µM, first compound 0.316 µM
[14] = second compound 0.1 µM, first compound 1 µM
[15] = second compound 0.316 µM, first compound 0.0316 µM
[16] = second compound 0.316 µM, first compound 0.1 µM
[17] = second compound 0.316 µM, first compound 0.316 µM
[18] = second compound 0.316 µM, first compound 1 µM
[19] = second compound 1 µM, first compound 0.0316 µM
[20] = second compound 1 µM, first compound 0.1 µM
[21] = second compound 1 µM, first compound 0.316 µM
[22] = second compound 1 µM, first compound 1 µM
[23] = second compound 3.16 µM, first compound 0.0316 µM
[24] = second compound 3.16 µM, first compound 0.1 µM
[25] = second compound 3.16 µM, first compound 0.316 µM
[26] = second compound 3.16 µM, first compound 1 µM
[27] = second compound 10 µM, first compound 0.0316 µM
[28] = second compound 10 µM, first compound 0.1 µM
[29] = second compound 10 µM, first compound 0.316 µM
[30] = second compound 10 µM, first compound 1 µM
[31] = second compound 0.0316 µM, first compound 3.16 µM
[32] = second compound 0.0316 µM, first compound 10 µM
[33] = second compound 0.1 µM, first compound 3.16 µM
[34] = second compound 0.1 µM, first compound 10 µM
[35] = second compound 0.316 µM, first compound 3.16 µM
[36] = second compound 0.316 µM, first compound 10 µM
[37] = second compound 1 µM, first compound 3.16 µM
[38] = second compound 1 µM, first compound 10 µM
[39] = second compound 3.16 µM, first compound 3.16 µM
[40] = second compound 3.16 µM, first compound 10 µM
[41] = second compound 10 µM, first compound 3.16 µM
[42] = second compound 10 µM, first compound 10 µM
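Throughout, for viability, T/C: drug exposure lasted seven days before viability readout; 100% = DMSO vehicle control wells.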

SMILES: O=C(c1cc(Cc2n[nH]c(=O)c3ccccc23)ccc1F)N1CCN(C(=O)C2CC2)CC1
- viability, T/C (compound 0.0316 µM): 109% and 101%
- viability, T/C (compound 0.1 µM): 90.8% and 97.7%
- viability, T/C (compound 0.316 µM): 92% and 108%
- viability, T/C (compound 1 µM): 79.5% and 103%
- viability, T/C (compound 3.16 µM): 75.7% and 84.3%
- viability, T/C (compound 10 µM): 57.9% and 71.5%
- pIC50 (curve of compound): < 5.00

SMILES: CCc1c2c(nc3ccc(O)cc13)-c1cc3c(c(=O)n1C2)COC(=O)[C@]3(O)CC + CNC(=O)c1ccc(Nc2nc(OC3CCCC3)c3c(-c4ccc5nc(C)oc5c4)c[nH]c3n2)c(OC)c1
- pIC50 [1]: > 8.50
- pIC50 [2]: > 8.50
- pIC50 [3]: > 8.50
- pIC50 [4]: > 8.50
- pIC50 [5]: > 8.50
- pIC50 [6]: > 8.50
- viability, T/C (second compound 0.0316 µM, first compound 0.00316 µM): 30.3%
- viability, T/C (second compound 0.0316 µM, first compound 0.01 µM): 11.5%
- viability, T/C [7]: 8.79%
- viability, T/C [8]: 5.84%
- viability, T/C [9]: 5.59%
- viability, T/C [10]: 4.59%
- viability, T/C (second compound 0.1 µM, first compound 0.00316 µM): 30.1%
- viability, T/C (second compound 0.1 µM, first compound 0.01 µM): 10.5%
- viability, T/C [11]: 7.18%
- viability, T/C [12]: 5.66%
- viability, T/C [13]: 5.26%
- viability, T/C [14]: 2.75%
- viability, T/C (second compound 0.316 µM, first compound 0.00316 µM): 14.1%
- viability, T/C (second compound 0.316 µM, first compound 0.01 µM): 8.48%
- viability, T/C [15]: 7.05%
- viability, T/C [16]: 4.87%
- viability, T/C [17]: 5.55%
- viability, T/C [18]: 4.88%
- viability, T/C (second compound 1 µM, first compound 0.00316 µM): 11.9%
- viability, T/C (second compound 1 µM, first compound 0.01 µM): 10.9%
- viability, T/C [19]: 8.46%
- viability, T/C [20]: 5.17%
- viability, T/C [21]: 4.53%
- viability, T/C [22]: 3.56%
- viability, T/C (second compound 3.16 µM, first compound 0.00316 µM): 14.8%
- viability, T/C (second compound 3.16 µM, first compound 0.01 µM): 13.1%
- viability, T/C [23]: 9.98%
- viability, T/C [24]: 6.24%
- viability, T/C [25]: 7.38%
- viability, T/C [26]: 5.35%
- viability, T/C (second compound 10 µM, first compound 0.00316 µM): 17.2%
- viability, T/C (second compound 10 µM, first compound 0.01 µM): 13.8%
- viability, T/C [27]: 10.4%
- viability, T/C [28]: 7.91%
- viability, T/C [29]: 6.48%
- viability, T/C [30]: 4.98%

SMILES: C=C(F)C(=O)N1CCN(c2nc(OCC3CCCN3C)nc3c2CCN(c2cccc4cccc(Cl)c24)C3)CC1CC#N (configuration not stated) + CN1CCN(c2cc(C(=O)Nc3cc4cc(-c5cnn(C)c5)ccc4cn3)ccn2)CC1
- pIC50 [1]: 5.24
- pIC50 [2]: 5.27
- pIC50 [3]: > 7.50
- pIC50 [4]: > 7.50
- pIC50 [5]: > 7.50
- pIC50 [6]: > 7.50
- viability, T/C [7]: 111%
- viability, T/C [8]: 105%
- viability, T/C [9]: 109%
- viability, T/C [10]: 126%
- viability, T/C [31]: 102%
- viability, T/C [32]: 0.2%
- viability, T/C [11]: 106%
- viability, T/C [12]: 114%
- viability, T/C [13]: 98.5%
- viability, T/C [14]: 106%
- viability, T/C [33]: 94.2%
- viability, T/C [34]: 0.16%
- viability, T/C [15]: 46%
- viability, T/C [16]: 45.1%
- viability, T/C [17]: 50%
- viability, T/C [18]: 50.1%
- viability, T/C [35]: 47.5%
- viability, T/C [36]: 0.75%
- viability, T/C [19]: 0.54%
- viability, T/C [20]: 0.36%
- viability, T/C [21]: 0.62%
- viability, T/C [22]: 0.47%
- viability, T/C [37]: 0.48%
- viability, T/C [38]: 0.1%
- viability, T/C [23]: 0.13%
- viability, T/C [24]: 0.15%
- viability, T/C [25]: 0.17%
- viability, T/C [26]: 0.16%
- viability, T/C [39]: 0.14%
- viability, T/C [40]: 0.11%
- viability, T/C [27]: 0.21%
- viability, T/C [28]: 0.19%
- viability, T/C [29]: 0.21%
- viability, T/C [30]: 0.24%
- viability, T/C [41]: 0.25%
- viability, T/C [42]: 0.21%

SMILES: COC1C=CCC(C)C(C)S(=O)(=O)NC(=O)c2ccc3c(c2)N(CC2CCC21)CC1(CCCc2cc(Cl)ccc21)CO3 (configuration not stated)
- viability, T/C (compound 0.0316 µM): 102% and 92.4%
- viability, T/C (compound 0.1 µM): 91% and 85%
- viability, T/C (compound 0.316 µM): 77% and 89.5%
- viability, T/C (compound 1 µM): 79% and 77.1%
- viability, T/C (compound 3.16 µM): 25.9% and 15.1%
- viability, T/C (compound 10 µM): 2.88% and 3.41%
- pIC50 (curve of compound): 5.74 and 5.78

SMILES: CC(=O)O[C@H]1C(=O)[C@@]2(C)[C@H]([C@H](OC(=O)c3ccccc3)[C@]3(O)C[C@H](OC(=O)[C@H](O)[C@@H](NC(=O)c4ccccc4)c4ccccc4)C(C)=C1C3(C)C)[C@]1(OC(C)=O)CO[C@@H]1C[C@@H]2O + CNC(=O)c1ccc(Nc2nc(OC3CCCC3)c3c(-c4ccc5nc(C)oc5c4)c[nH]c3n2)c(OC)c1
- pIC50 [1]: > 7.50
- pIC50 [2]: > 7.50
- pIC50 [3]: > 7.50
- pIC50 [4]: > 7.50
- pIC50 [5]: > 7.50
- pIC50 [6]: > 7.50
- viability, T/C [7]: 11.1%
- viability, T/C [8]: 9.61%
- viability, T/C [9]: 10%
- viability, T/C [10]: 12.1%
- viability, T/C [31]: 14.1%
- viability, T/C [32]: 15.9%
- viability, T/C [11]: 13.8%
- viability, T/C [12]: 12.4%
- viability, T/C [13]: 11.7%
- viability, T/C [14]: 12.5%
- viability, T/C [33]: 13%
- viability, T/C [34]: 28.7%
- viability, T/C [15]: 40.7%
- viability, T/C [16]: 50.4%
- viability, T/C [17]: 62.9%
- viability, T/C [18]: 70.5%
- viability, T/C [35]: 76.1%
- viability, T/C [36]: 97.3%
- viability, T/C [19]: 40.6%
- viability, T/C [20]: 64.3%
- viability, T/C [21]: 58.8%
- viability, T/C [22]: 66.5%
- viability, T/C [37]: 75%
- viability, T/C [38]: 76.9%
- viability, T/C [23]: 33.9%
- viability, T/C [24]: 47.7%
- viability, T/C [25]: 74.3%
- viability, T/C [26]: 64.2%
- viability, T/C [39]: 67.5%
- viability, T/C [40]: 72.7%
- viability, T/C [27]: 39.9%
- viability, T/C [28]: 42.5%
- viability, T/C [29]: 59.8%
- viability, T/C [30]: 64.4%
- viability, T/C [41]: 65.7%
- viability, T/C [42]: 73.2%

SMILES: Cn1ncnc1[C@H]1c2n[nH]c(=O)c3cc(F)cc(c23)N[C@@H]1c1ccc(F)cc1
- viability, T/C (compound 0.000316 µM): 106% and 98.8%
- viability, T/C (compound 0.001 µM): 84.9% and 101%
- viability, T/C (compound 0.00316 µM): 99.2% and 97.4%
- viability, T/C (compound 0.01 µM): 83.2% and 92.6%
- viability, T/C (compound 0.0316 µM): 73.8% and 77.2%
- viability, T/C (compound 0.1 µM): 67.4% and 71.5%
- pIC50 (curve of compound): < 7.00
